In patent publication US20150210729A1, “MACROLIDE DERIVATIVES, PREPARATION THEREOF AND THERAPEUTIC USE THEREOF” (priority 2012, published 2015):
Converted amounts (≈) assume the structure as drawn.

Each molecule was assayed on Mycobacterium tuberculosis H37Rv (assay: Alamar blue (MABA) test, MIC on Mycobacterium tuberculosis H37Rv). Settings: H37RV, read-out: MIC (μM) MTb H37Rv.
Type: cell-based

| Compound | MIC [µM] |
| --- | --- |
| CON=C1C[C@@H](C)O[C@@H](O[C@@H]2[C@@H](C)[C@H](O[C@H]3C[C@@H](C)N(C)C[C@H](C)O3)[C@@H](C)C(=O)O[C@H](C(C)CO[C@@H]3O[C@H](C)[C@@H](O)[C@@H](OC)[C@H]3OC)[C@H](C)[C@@H](OC(=O)CC(C)C)[C@@H](C)C(=O)[C@@](C)(OC(=O)N(C)C)C[C@@H]2C)[C@@H]1O (stereo partly drawn) [Compound 3, (2R,3S,4R,5R,7S,9S,10S,11R,12S,13R)-7-[(dimethylcarbamoyl)oxy]-2-(1-{[(2R,3R,4R,5R,6R)-5-hydroxy-3,4-dimethoxy-6-methyltetrahydro-2H-pyran-2-yl]oxy}propan-2-yl)-10-{[(2S,3R,6R)-3-hydroxy-4-(methoxyimino)-6-methyltetrahydro-2H-pyran-2-yl]oxy}-3,5,7,9,11,13-hexamethyl-6,14-dioxo-12-{[(2S,5R,7R)-2,4,5-trimethyl-1,4-oxazepan-7-yl]oxy}oxacyclotetradecan-4-yl 3-methylbutanoate] | 1.27 (≈ 1.35 µg/mL) |

Same assay, conditions: minimum inhibitory concentration, Alamar blue, strain H37Rv, read-out: MIC (μM) MTb H37Rv

| Compound | MIC [µM] |
| --- | --- |
| CON=C1C[C@@H](C)O[C@@H](O[C@@H]2[C@@H](C)[C@H](O[C@H]3CC(C)N(CC(=O)Nc4ccc5ccc(C)nc5n4)C[C@H](C)O3)[C@@H](C)C(=O)O[C@H]([C@@H](C)CO[C@@H]3O[C@H](C)[C@@H](O)[C@@H](OC)[C@H]3OC)[C@H](C)[C@@H](OC(=O)CC(C)C)[C@@H](C)C(=O)[C@@](C)(OC(=O)NCc3ccccc3)C[C@@H]2C)[C@@H]1O (some centres unmarked) [Compound 51] | 0.29 (≈ 0.379 µg/mL) |
| CON=C1C[C@@H](C)O[C@@H](O[C@@H]2[C@@H](C)[C@H](O[C@H]3C[C@@H](C)N(C)C[C@H](C)O3)[C@@H](C)C(=O)O[C@H](C(C)CO[C@@H]3O[C@H](C)[C@@H](O)[C@@H](OC)[C@H]3OC)[C@H](C)[C@@H](OC(=O)CC(C)C)[C@@H](C)C(=O)[C@@](C)(OC(=O)NCc3ccccc3)C[C@@H]2C)[C@@H]1O (single isomer, unassigned) [Compound 7-a] | 0.54 (≈ 0.606 µg/mL) |
| CON=C1C[C@@H](C)O[C@@H](O[C@@H]2[C@@H](C)[C@H](O[C@H]3C[C@@H](C)N(C)C[C@H](C)O3)[C@@H](C)C(=O)O[C@H](C(C)CO[C@@H]3O[C@H](C)[C@@H](O)[C@@H](OC)[C@H]3OC)[C@H](C)[C@@H](OC(=O)CC(C)C)[C@@H](C)C(=O)[C@@](C)(OC(=O)NC(C)(C)CNS(=O)(=O)c3ccccc3[N+](=O)[O-])C[C@@H]2C)[C@@H]1O (single isomer, unassigned) [Compound 5-a] | 0.34 (≈ 0.438 µg/mL) |
| CON=C1C[C@@H](C)O[C@@H](O[C@@H]2[C@@H](C)[C@H](O[C@H]3C[C@H](C)N(CC(C)(C)O)C[C@H](C)O3)[C@@H](C)C(=O)O[C@H]([C@@H](C)CO[C@@H]3O[C@H](C)[C@@H](O)[C@@H](OC)[C@H]3OC)[C@H](C)[C@@H](OC(=O)CC(C)C)[C@@H](C)C(=O)[C@@](C)(OC(=O)NCc3ccccc3)C[C@@H]2C)[C@@H]1O [Compound 11] | 0.63 (≈ 0.744 µg/mL) |
| CON=C1C[C@@H](C)O[C@@H](O[C@@H]2[C@@H](C)[C@H](O[C@H]3C[C@@H](C)N(C)CC(C)O3)[C@@H](C)C(=O)O[C@H]([C@@H](C)CO[C@@H]3O[C@H](C)[C@@H](O)[C@@H](OC)[C@H]3OC)[C@H](C)[C@@H](OC(=O)CC(C)C)[C@@H](C)C(=O)[C@@](C)(OC(=O)NC(C)(C)CNS(=O)(=O)c3ccccc3)C[C@@H]2C)[C@@H]1O (some centres unmarked) [Compound 70] | 0.46 (≈ 0.572 µg/mL) |
| CON=C1C[C@@H](C)O[C@@H](O[C@@H]2[C@@H](C)[C@H](O[C@H]3C[C@@H](C)N(C)C[C@H](C)O3)[C@@H](C)C(=O)O[C@H](C(C)CO[C@@H]3O[C@H](C)[C@@H](O)[C@@H](OC)[C@H]3OC)[C@H](C)[C@@H](OC(=O)CC(C)C)[C@@H](C)C(=O)[C@@](C)(O)C[C@@H]2C)[C@@H]1O (single isomer, unassigned) [Compound 1-a] | 2.05 (≈ 2.03 µg/mL) |
| CON=C1C[C@@H](C)O[C@@H](O[C@@H]2[C@@H](C)[C@H](O[C@H]3C[C@@H](C)N(CC(C)(C)O)C[C@H](C)O3)[C@@H](C)C(=O)O[C@H]([C@@H](C)CO[C@@H]3O[C@H](C)[C@@H](O)[C@@H](OC)[C@H]3OC)[C@H](C)[C@@H](OC(=O)CC(C)C)[C@@H](C)C(=O)[C@@](C)(OC(=O)NCc3ccccc3)C[C@@H]2C)[C@@H]1O [Compound 12] | 0.6 (≈ 0.708 µg/mL) |
